Key:
[1] = tested on: Immortalised Mouse Dermal Fibroblasts (MDFs); test: Inhibition of TSI induced necroptosis in mouse dermal fibroblasts (CellTitre-Glo); conditions: Mus musculus, Fibroblast, 3 h, MDF cells, TSI cocktail (TNF, Smac mimetic, IDN-6556), read-out: Inhibition of TSI-induced necroptosis (IC50 cell-based assay) in MDF
Description: Cellular Assay: Screening Compounds for Inhibition of TSI Induced Necroptosis in, 384 well plate format. • Cell Line ID: Immortalised Mouse Dermal Fibroblasts (MDFs). • Cell Concentration (cells/well): Final cell density is 2200 cells per well. • Cell growth medium: DMEM medium+7.4% Fetal Bovine Serum (FBS). Cells are cultured in Corning 150 cm^2 tissue culture flasks with vented caps at 37° C./10% CO2. • Incubation: Plates were incubated for 30 minutes following addition of compounds and then 3 hours incubation with death stimuli (TSI cocktail) at 37° C./10% CO2 in a humidified incubator. • Compound concentration: 36 μM starting concentration, 1:3 dilution, 10 point • DMSO final concentration (% v/v): 0.3%. Compounds in TSI Cocktail (T: TNF; S: Smac Mimetic; I: IDN-6556) and their Final Concentrations: • rhTNF (100 ng/ml) • Compound A (500 nM)—Smac mimetic, Tetralogic and SYNthesis med chem • IDN-6556 (10 μM)—Selleckchem (S7775)
The cellular assay was carried out according to the following steps: • 1. Each well was prepared by sequential addition of: • a. 40 μL of cell suspension (5.5×10^4 cells/mL) was added to each well to provide a final cell concentration of 2,200 cells per well. • b. After 24 hours, DMSO (control; columns 1-2 and 23-24) or compound in DMSO—addition was performed using acoustic transfer of nL volumes of stock compound to give final test concentrations of 36, 12, 4, 1.3, 0.44, 0.148, 0.049, 0.016, 0.005 and 0.002 μM. All wells were backfilled with DMSO to a final total volume in the well of 100 nL. • c. Following compound/DMSO addition in step (b), Plates were incubated for 30 minutes at 37° C./10% CO2 in a humidified incubator and then 10 μL of 5×TSI cocktail (except to positive controls; columns 2 and 24) was added to each well. • 2. After 3 hours, plate was removed from the 37° C. incubator and equilibrated to room temperature for 15 minutes. • 3. 15 μL of room temperature CellTitre-Glo2™ (Promega™) was added to each well. • 4. Shook plates for 2 minutes (˜600 rpm) and incubated at room temperature for 15 minutes to allow signal to stabilise. • 5. Read luminescence readout on a plate reader.
Percent viability was calculated for each compound according to equation (2): […]
10 point titration curves were fitted with the 4 parameter logistic nonlinear regression model and the IC50 reported reflect the inflection point of the curve for curve fitting.
• Assay involving the TSI cocktail (T: TNF; S: Smac mimetic; I: IDN-6556): TSI treatment ensures that cells specifically undergo necroptotic cell death. TNF activates the TNF receptor, Smac mimetic directs the signal away from proinflammatory signaling and toward the RIPK1/RIPK3-mediated cell death pathways, and IDN-6556 (Caspase inhibitor) ensures that the apoptotic response is blocked leaving only the programmed necrosis response. The compounds' activity (solution in DMSO) tested in this TSI-induced assay was evaluated by determining the number of viable cells in culture by measuring the amount of ATP present as measured by CelltiterGlo.

[2] = target: human MLKL (full length) (Homo sapiens (Human), UniProt Q8NB16); test: KINOMEscan binding assay, human MLKL (full length); conditions: equilibrium dissociation constant
Sequence of human MLKL (full length) (Q8NB16 whole entry): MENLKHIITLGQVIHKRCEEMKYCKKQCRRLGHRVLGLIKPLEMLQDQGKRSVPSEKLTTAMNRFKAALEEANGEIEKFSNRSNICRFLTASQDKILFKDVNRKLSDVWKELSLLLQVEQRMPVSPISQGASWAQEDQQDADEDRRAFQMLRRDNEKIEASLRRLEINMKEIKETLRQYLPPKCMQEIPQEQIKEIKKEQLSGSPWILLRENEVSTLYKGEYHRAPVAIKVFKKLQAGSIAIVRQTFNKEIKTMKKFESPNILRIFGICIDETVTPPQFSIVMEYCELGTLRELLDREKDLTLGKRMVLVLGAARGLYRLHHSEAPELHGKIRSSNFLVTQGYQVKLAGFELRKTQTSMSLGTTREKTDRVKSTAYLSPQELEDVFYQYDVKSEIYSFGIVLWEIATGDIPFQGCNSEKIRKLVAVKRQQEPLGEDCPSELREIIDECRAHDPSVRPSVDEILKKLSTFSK
Outline: (§1)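 In this assay, compounds displace DNA- or phage-tagged kinase from an immobilized ligand, and eluted kinase is quantified by qPCR.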

[3] = target: human RIPK3 (Homo sapiens (Human), UniProt Q9Y572); test: KINOMEscan binding assay, human RIPK3; conditions: equilibrium dissociation constant
Sequence of human RIPK3 (Q9Y572 whole entry): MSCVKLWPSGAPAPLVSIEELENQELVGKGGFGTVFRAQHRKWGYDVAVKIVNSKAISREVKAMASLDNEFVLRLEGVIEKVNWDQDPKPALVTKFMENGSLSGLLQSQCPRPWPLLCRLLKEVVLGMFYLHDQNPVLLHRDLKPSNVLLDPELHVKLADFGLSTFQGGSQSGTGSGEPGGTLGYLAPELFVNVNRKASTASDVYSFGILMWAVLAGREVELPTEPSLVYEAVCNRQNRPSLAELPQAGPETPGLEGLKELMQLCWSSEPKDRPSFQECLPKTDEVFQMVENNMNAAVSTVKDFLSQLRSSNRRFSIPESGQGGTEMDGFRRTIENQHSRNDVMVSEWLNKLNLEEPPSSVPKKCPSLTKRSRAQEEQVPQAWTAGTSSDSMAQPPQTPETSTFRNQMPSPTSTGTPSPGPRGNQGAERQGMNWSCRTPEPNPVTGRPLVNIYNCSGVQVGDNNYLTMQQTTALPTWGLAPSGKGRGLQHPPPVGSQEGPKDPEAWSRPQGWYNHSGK
Outline: as §1

[4] = target: human RIPK1 (Homo sapiens (Human), UniProt Q13546); test: KINOMEscan binding assay, human RIPK1; conditions: equilibrium dissociation constant
Sequence of human RIPK1 (Q13546 whole entry): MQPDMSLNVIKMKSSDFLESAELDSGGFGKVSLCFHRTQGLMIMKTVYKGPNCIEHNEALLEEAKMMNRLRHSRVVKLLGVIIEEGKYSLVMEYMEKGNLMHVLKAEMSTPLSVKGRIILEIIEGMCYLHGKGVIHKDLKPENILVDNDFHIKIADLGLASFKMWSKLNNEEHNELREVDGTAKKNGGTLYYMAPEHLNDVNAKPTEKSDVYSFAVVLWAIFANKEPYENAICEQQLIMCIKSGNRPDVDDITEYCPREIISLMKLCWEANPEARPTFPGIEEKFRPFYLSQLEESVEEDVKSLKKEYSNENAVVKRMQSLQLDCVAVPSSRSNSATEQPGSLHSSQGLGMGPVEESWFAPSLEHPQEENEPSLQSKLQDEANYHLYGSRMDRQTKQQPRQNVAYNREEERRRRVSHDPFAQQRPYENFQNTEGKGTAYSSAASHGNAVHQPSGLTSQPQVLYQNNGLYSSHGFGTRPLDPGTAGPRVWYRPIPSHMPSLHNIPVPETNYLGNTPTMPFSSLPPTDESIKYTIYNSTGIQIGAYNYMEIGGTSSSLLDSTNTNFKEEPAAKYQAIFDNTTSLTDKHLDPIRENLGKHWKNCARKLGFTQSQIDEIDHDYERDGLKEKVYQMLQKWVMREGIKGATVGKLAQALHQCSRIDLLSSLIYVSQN
Outline: as §1

[5] = tested on: U937 cells; test: Counter screen: U937 cell viability without TSQ cocktail (off-target effect); parameters: species or system human; conditions: Homo sapiens, U-937, compound without TSQ cocktail, read-out: Off-target effect (IC50 cell-based assay)
Outline: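 Off-target viability counter screen: compounds titrated 36 μM down 1:3 over 10 points (0.3% DMSO) on 20,000 U937 cells/well, no TNF/Smac mimetic/Q-VD-OPh added, 48 h incubation. ATP-based CellTiter-Glo luminescence, four-parameter logistic IC50.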

[6] = tested on: U937 human histiocytic leukemia cell line; test: Inhibition of TSQ induced necroptosis in U937 cells (CellTitre-Glo); conditions: Homo sapiens, U-937, TSQ cocktail (TNF, Smac mimetic, Q-VD-OPh), 48 hours, read-out: Inhibition of TSQ-induced necroptosis (IC50 cell-based assay)
Outline: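 Necroptosis was induced with TNF-Fc (100 ng/ml), Smac mimetic (500 nM) and Q-VD-OPh (10 μM) in 20000 U937 cells/well exposed to a 10-point, 3-fold compound series (top 36 μM, 0.3% DMSO). ATP luminescence read after 48 h; 4-parameter fit gave IC50. Parallel TSQ-free wells assessed compound toxicity.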

| SMILES | Kd [2] [nM] | Kd [3] [nM] | Kd [4] [nM] | IC50 [1] [nM] | IC50 [5] [nM] | IC50 [6] [nM] |
| --- | --- | --- | --- | --- | --- | --- |
| C[C@H](Oc1cc(-c2nn(C)c3c(C#N)cnc(N)c23)ccc1NS(=O)(=O)C(F)F)c1ccc(F)cc1 [Compound 133, N-(4-{4-amino-7-cyano-1-methyl-1H-pyrazolo[4,3-c]pyridin-3-yl}-2-[(1S)-1-(4-fluorophenyl)ethoxy]phenyl)-1,1-difluoromethanesulfonamide] | < 1 | > 10000 | > 10000 | – | > 10000 | 10 to 1000 |
| C[C@H](Oc1cc(-c2nn(C)c3c(-c4cnn(C5CCOCC5)c4)cnc(N)c23)ccc1NS(=O)(=O)C(F)F)c1ccc(Cl)cc1 [Compound 137, (S)-N-(4-(4-amino-1-methyl-7-(1-(tetrahydro-2H-pyran-4-yl)-1H-pyrazol-4-yl)-1H-pyrazolo[4,3-c]pyridin-3-yl)-2-(1-(4-chlorophenyl)ethoxy)phenyl)-1,1-difluoromethanesulfonamide] | – | – | – | 1000 to 10000 | > 10000 | < 10 |
| C[C@H](Oc1cc(-c2nn(C)c3c(N4CCOCC4)cnc(N)c23)ccc1NS(=O)(=O)C(F)F)c1ccc(F)cc1 [Compound 141, N-{4-[4-amino-1-methyl-7-(morpholin-4-yl)-1H-pyrazolo[4,3-c]pyridin-3-yl]-2-[(1S)-1-(4-fluorophenyl)ethoxy]phenyl}-1,1-difluoromethanesulfonamide] | 1 to 100 | > 10000 | > 10000 | – | > 10000 | 10 to 1000 |
| Cc1nn(C2CCN(C)C(C)(C)C2)cc1-c1cnc(N)c2c(-c3ccc(NS(=O)(=O)C(F)F)c(O[C@@H](C)c4ccc(F)cc4)c3)nn(C)c12 (stereo partly drawn) [Compound 156, N-(4-(4-amino-1-methyl-7-(3-methyl-1-(1,2,2-trimethylpiperidin-4-yl)-1H-pyrazol-4-yl)-1H-pyrazolo[4,3-c]pyridin-3-yl)-2-((S)-1-(4-fluorophenyl)ethoxy)phenyl)-1,1-difluoromethanesulfonamide] | 1 to 100 | > 10000 | > 10000 | – | > 10000 | 10 to 1000 |
| C[C@H](Oc1cc(-c2nn(C)c3c(-c4ccc5[nH]c(=O)n(C)c5c4)cnc(N)c23)ccc1NS(=O)(=O)C(F)F)c1ccc(F)cc1 [Compound 160, (S)-N-(4-(4-amino-1-methyl-7-(3-methyl-2-oxo-2,3-dihydro-1H-benzo[d]imidazol-5-yl)-1H-pyrazolo[4,3-c]pyridin-3-yl)-2-(1-(4-fluorophenyl)ethoxy)phenyl)-1,1-difluoromethanesulfonamide] | < 1 | > 10000 | > 10000 | – | > 10000 | 10 to 1000 |
| C[C@H](Oc1cc(-c2nn(C)c3c(-c4ccc5c(c4)n(C)c(=O)n5C)cnc(N)c23)ccc1NS(=O)(=O)C(F)F)c1ccc(F)cc1 [Compound 161, (S)-N-(4-(4-amino-7-(1,3-dimethyl-2-oxo-2,3-dihydro-1H-benzo[d]imidazol-5-yl)-1-methyl-1H-pyrazolo[4,3-c]pyridin-3-yl)-2-(1-(4-fluorophenyl)ethoxy)phenyl)-1,1-difluoromethanesulfonamide] | < 1 | > 10000 | > 10000 | – | > 10000 | 1000 to 10000 |
| C[C@H](Oc1cc(-c2nn(C)c3c(-c4ccc5c(c4)CC(=O)N5C)cnc(N)c23)ccc1NS(=O)(=O)C(F)F)c1ccc(F)cc1 [Compound 165, (S)-N-(4-(4-amino-1-methyl-7-(1-methyl-2-oxoindolin-5-yl)-1H-pyrazolo[4,3-c]pyridin-3-yl)-2-(1-(4-fluorophenyl)ethoxy)phenyl)-1,1-difluoromethanesulfonamide] | 1 to 100 | > 10000 | > 10000 | – | > 10000 | 10 to 1000 |

Continued, in another order:

| Kd [2] [nM] | Kd [3] [nM] | Kd [4] [nM] | SMILES | IC50 [1] [nM] | IC50 [5] [nM] | IC50 [6] [nM] |
| --- | --- | --- | --- | --- | --- | --- |
| < 1 | > 10000 | > 10000 | CCS(=O)(=O)Nc1ccc(-c2coc3c(-c4cnn(C5CCOCC5)c4)cnc(N)c23)cc1OCc1ccc(F)cc1 [Compound 3, N-(4-(4-amino-7-(1-(tetrahydro-2H-pyran-4-yl)-1H-pyrazol-4-yl)furo[3,2-c]pyridin-3-yl)-2-((4-fluorobenzyl)oxy)phenyl)ethanesulfonamide] | 1000 to 10000 | – | – |
| 1 to 100 | > 10000 | > 10000 | C[C@H](Oc1cc(-c2nn(C)c3c(-c4cnn(C(F)(F)F)c4)cnc(N)c23)ccc1NS(=O)(=O)C(F)F)c1ccc(F)cc1 [Compound 134, (S)-N-(4-(4-amino-1-methyl-7-(1-(trifluoromethyl)-1H-pyrazol-4-yl)-1H-pyrazolo[4,3-c]pyridin-3-yl)-2-(1-(4-fluorophenyl)ethoxy)phenyl)-1,1-difluoromethanesulfonamide] | – | > 10000 | 10 to 1000 |
| < 1 | > 10000 | > 10000 | Cn1nc(-c2ccc(NS(=O)(=O)C(F)F)cc2OCc2cccc(F)c2)c2c(N)ncc(-c3cnn(C4CCOCC4)c3)c21 [Compound 135, N-(4-(4-amino-1-methyl-7-(1-(tetrahydro-2H-pyran-4-yl)-1H-pyrazol-4-yl)-1H-pyrazolo[4,3-c]pyridin-3-yl)-3-((3-fluorobenzyl)oxy)phenyl)-1,1-difluoromethanesulfonamide] | – | > 10000 | 10 to 1000 |
| 1 to 100 | > 10000 | > 10000 | CNc1ncc(-n2cc(-c3cnc(N)c4c(-c5ccc(NS(=O)(=O)C(F)F)c(O[C@@H](C)c6ccc(F)cc6)c5)nn(C)c34)cn2)cn1 [Compound 138, (S)-N-(4-(4-amino-1-methyl-7-(1-(2-(methylamino)pyrimidin-5-yl)-1H-pyrazol-4-yl)-1H-pyrazolo[4,3-c]pyridin-3-yl)-2-(1-(4-fluorophenyl)ethoxy)phenyl)-1,1-difluoromethanesulfonamide] | – | > 10000 | 10 to 1000 |
| 1 to 100 | > 10000 | > 10000 | Cn1nc(-c2ccc(NS(=O)(=O)C(F)F)c(OC3(c4ccc(F)cc4)CC3)c2)c2c(N)ncc(-c3cnn(C4CCOCC4)c3)c21 [Compound 140, N-(4-(4-amino-1-methyl-7-(1-(tetrahydro-2H-pyran-4-yl)-1H-pyrazol-4-yl)-1H-pyrazolo[4,3-c]pyridin-3-yl)-2-(1-(4-fluorophenyl)cyclopropoxy)phenyl)-1,1-difluoromethanesulfonamide] | – | > 10000 | 10 to 1000 |
| < 1 | > 10000 | > 10000 | Cn1nc(-c2ccc(NS(=O)(=O)C(F)F)c(OCC3CCCCC3)c2)c2c(N)ncc(-c3cnn(C4CCOCC4)c3)c21 [Compound 150, N-(4-(4-amino-1-methyl-7-(1-(tetrahydro-2H-pyran-4-yl)-1H-pyrazol-4-yl)-1H-pyrazolo[4,3-c]pyridin-3-yl)-2-(cyclohexylmethoxy)phenyl)-1,1-difluoromethanesulfonamide] | 1000 to 10000 | – | – |
